Laboratory results taken from ChEMBL document CHEMBL1201862, “PubChem BioAssay data set” (2004).
Activity calls are given as the source filed them.

What was measured:
[1] = Luminescence Cell-Based Dose Retest to Confirm Inhibitors of Cancer Stem Cells. [Related pubchem assays (depositor defined):AID2717, AID2721]; format: functional; conditions: Homo sapiens
[2] = biological target: T1, Ubiquitin-conjugating enzyme E2 N (Homo sapiens, UniProt P61088); format: functional;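 further: Dose-response confirmation in a TR-FRET assay detecting UBC13-driven polyubiquitin chain formation, inhibition measured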
T1 sequence (P61088 whole entry): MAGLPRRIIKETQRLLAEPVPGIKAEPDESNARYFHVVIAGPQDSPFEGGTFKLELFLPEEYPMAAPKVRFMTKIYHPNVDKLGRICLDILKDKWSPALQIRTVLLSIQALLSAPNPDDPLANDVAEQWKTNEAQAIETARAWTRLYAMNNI

Insulin-degrading enzyme [3] = biological target: T2, Insulin-degrading enzyme (Homo sapiens, UniProt P14735); assay: activators of recombinant IDE enzyme, dose response, counter-screen for IDE activator project, biochemical, fluorescence polarization (AID 588681)
T2 sequence (P14735 whole entry): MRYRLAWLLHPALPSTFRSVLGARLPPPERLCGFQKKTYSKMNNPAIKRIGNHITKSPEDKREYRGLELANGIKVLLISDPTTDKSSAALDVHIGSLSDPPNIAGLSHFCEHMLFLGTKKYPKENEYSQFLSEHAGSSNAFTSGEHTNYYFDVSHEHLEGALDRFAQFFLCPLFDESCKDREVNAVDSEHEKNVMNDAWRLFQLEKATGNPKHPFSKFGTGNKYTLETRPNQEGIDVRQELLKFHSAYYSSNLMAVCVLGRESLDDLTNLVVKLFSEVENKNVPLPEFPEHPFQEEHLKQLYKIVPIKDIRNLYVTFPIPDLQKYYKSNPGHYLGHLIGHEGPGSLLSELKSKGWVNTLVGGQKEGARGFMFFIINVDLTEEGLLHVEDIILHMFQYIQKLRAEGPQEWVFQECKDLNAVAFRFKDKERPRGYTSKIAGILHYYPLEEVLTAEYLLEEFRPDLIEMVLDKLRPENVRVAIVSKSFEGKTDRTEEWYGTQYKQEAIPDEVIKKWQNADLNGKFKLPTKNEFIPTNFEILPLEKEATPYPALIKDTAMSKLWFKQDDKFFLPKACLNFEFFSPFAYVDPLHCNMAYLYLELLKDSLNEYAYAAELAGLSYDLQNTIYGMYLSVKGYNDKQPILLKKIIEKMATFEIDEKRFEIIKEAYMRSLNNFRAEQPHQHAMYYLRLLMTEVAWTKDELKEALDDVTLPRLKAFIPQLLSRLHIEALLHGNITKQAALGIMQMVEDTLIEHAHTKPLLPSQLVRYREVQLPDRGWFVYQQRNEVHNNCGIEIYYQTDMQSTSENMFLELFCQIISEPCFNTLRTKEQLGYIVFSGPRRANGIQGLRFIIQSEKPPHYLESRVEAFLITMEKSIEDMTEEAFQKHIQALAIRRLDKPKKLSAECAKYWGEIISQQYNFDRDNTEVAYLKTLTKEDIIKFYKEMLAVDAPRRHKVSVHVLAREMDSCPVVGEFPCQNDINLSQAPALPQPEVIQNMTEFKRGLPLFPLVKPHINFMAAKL

Insulin-degrading enzyme [4] = biological target: T2, Insulin-degrading enzyme; assay: activators of endogenous IDE in HEK cells, dose response, cell-based, fluorescence polarization (AID 588439); format: functional
INS1 = assay: beta cell apoptosis inhibitors, cytokine rescue, dose response, luminescence, retest (AID 449756); format: functional, cell-based; conditions: Rattus norvegicus;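 further: cell death triggered by IL-1 beta plus TNF-alpha plus IFN-gamma mixture; protective hits raise ATP signal compared with cytokine alone wells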
HEK293 [5] = assay: HEK cell cytotoxicity by LDH release, dose response, cytotoxicity control for IDE activator project, fluorescence, HEK cells (AID 588440); format: functional, cell-based; conditions: Homo sapiens;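 further: cytotoxicity by LDH release measuring loss of membrane integrity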
HEK293 [6] = assay: optical interference in Abeta FP readout, dose response, artefact control for IDE activator project, biochemical, fluorescence polarization (AID 588442); format: functional, cell-based; conditions: Homo sapiens
Paired box protein Pax-8 = Paired box protein Pax-8 (Homo sapiens, UniProt Q06710); assay: inhibitors of PAX8-driven TPO luciferase reporter, dose response, RMG-I cells, cherry-pick (AID 687027); format: functional, cell-based;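 further: luciferase reporter driven by Pax8 target thyroperoxidase promoter measured by SteadyGlo luminescence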
Sequence of Paired box protein Pax-8 (Q06710 whole entry): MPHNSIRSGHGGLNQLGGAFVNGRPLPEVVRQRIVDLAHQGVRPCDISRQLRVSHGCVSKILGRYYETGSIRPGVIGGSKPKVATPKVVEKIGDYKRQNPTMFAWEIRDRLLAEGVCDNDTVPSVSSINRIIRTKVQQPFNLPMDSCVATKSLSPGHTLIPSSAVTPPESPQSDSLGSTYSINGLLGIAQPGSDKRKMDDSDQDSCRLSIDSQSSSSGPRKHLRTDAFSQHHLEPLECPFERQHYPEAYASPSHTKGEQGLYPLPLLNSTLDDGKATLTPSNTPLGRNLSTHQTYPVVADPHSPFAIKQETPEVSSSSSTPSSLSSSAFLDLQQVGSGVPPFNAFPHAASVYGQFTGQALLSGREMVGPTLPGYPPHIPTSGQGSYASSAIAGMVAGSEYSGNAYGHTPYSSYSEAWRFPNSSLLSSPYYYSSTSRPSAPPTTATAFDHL

[7] = IOSE-T80 ovarian epithelial cell cytotoxicity, dose response, cytotoxicity control for PAX8 inhibitor project, plate reader, dry powder samples (AID 743045); format: functional, cell-based
[8] = NIH:OVCAR-3 ovarian cancer cell cytotoxicity, dose response, PAX8 inhibitor project, plate reader, dry powder samples (AID 743044); format: functional, cell-based
[9] = IGROV1 ovarian cancer cell cytotoxicity, dose response, PAX8 inhibitor project, plate reader, dry powder samples (AID 743043); format: functional, cell-based; conditions: IGROV-1
[10] = cytotoxicity in OVCAR8 ovarian cancer cells, dose response, PAX8 project, cell-based, plate reader, dry powder samples (AID 743197); format: functional; conditions: OVCAR-8
[11] = biological target: T3, Low molecular weight phosphotyrosine protein phosphatase (Homo sapiens, UniProt P24666); format: functional; conditions: read-out: IC50_Mean;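 further: Dose-response confirmation assay measuring inhibition of LMPTP enzyme activity by fluorescence intensity read-out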
T3 sequence (P24666 whole entry): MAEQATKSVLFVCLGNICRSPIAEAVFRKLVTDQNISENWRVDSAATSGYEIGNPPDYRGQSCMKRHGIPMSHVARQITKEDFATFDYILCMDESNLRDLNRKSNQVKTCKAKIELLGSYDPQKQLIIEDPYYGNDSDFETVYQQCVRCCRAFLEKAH

[12] = biological target: T4, Long-chain-fatty-acid--AMP ligase FadD28 (Mycobacterium tuberculosis, UniProt P9WQ59); assay: Fluorescence polarization aasay to screen for inhibitors that compete for the binding of FadD28 to a bisubstrate Measured in Biochemical System Using Plate Reader - 2147-01_Inhibitor_Dose_CherryPick_Activity.; format: functional, Mycobacterium tuberculosis H37Rv
T4 sequence (P9WQ59 whole entry): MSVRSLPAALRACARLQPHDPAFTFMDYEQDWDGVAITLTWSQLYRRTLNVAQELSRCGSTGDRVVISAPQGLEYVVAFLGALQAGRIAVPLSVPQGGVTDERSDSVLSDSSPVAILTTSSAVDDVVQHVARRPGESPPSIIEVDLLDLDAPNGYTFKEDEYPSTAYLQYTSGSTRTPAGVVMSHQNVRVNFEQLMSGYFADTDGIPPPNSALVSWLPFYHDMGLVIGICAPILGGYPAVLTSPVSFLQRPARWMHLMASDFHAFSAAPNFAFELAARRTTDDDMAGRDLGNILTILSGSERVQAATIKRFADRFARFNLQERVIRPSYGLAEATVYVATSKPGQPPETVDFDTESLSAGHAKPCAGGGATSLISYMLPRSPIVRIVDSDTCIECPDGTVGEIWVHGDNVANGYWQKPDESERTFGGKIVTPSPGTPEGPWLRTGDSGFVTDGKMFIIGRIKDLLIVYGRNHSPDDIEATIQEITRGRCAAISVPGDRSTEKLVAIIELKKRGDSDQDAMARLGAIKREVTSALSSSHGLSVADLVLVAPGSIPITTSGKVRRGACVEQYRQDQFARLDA

Caspase-6 = biological target: T5, Caspase-6 (Homo sapiens, UniProt P55212); assay: human caspase-6 inhibitors, dose response, biochemical, VEID-R110 fluorescence, cherry-pick (AID 720632)
T5 sequence (P55212 whole entry): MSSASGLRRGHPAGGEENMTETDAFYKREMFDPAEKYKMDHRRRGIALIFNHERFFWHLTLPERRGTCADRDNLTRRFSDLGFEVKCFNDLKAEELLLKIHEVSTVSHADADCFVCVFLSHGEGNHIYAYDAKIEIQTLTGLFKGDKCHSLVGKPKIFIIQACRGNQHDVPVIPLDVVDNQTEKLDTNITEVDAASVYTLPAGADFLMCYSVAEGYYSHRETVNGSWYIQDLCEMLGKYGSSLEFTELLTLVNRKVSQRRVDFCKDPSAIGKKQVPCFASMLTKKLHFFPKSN

[13] = test system: Streptococcus sp. 'group A'; assay: growth inhibition of control SK(-) GAS strain, dose response, counter-screen for streptokinase expression inhibitor project, luminescence, kanamycin, BacTiterGlo, confirmation (AID 1900); format: functional, organism-based
Streptococcus = assay: Group A Streptococcus viability loss, dose response, counter-screen for streptokinase expression inhibitor project, luminescence, BacTiterGlo (AID 1915); format: functional, organism-based;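 further: potency for reduction of bacterial viability or growth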

COC(=O)C1=C(C)N(Cc2ccccc2)C(NCc2cccc(Cl)c2)=N[C@H]1c1cccc(F)c1
AC50 [1]: 3.48 µM (active)
IC50 [2]: > 20 µM (inactive)
EC50 (Insulin-degrading enzyme [3]): > 54.7 µM (inactive)
EC50 (Insulin-degrading enzyme [4]): 25.2 µM (inactive)
AC50 (INS1): 7.03 µM (active)
IC50 (HEK293 [5]): 12.1 µM (inactive)
EC50 (HEK293 [6]): > 56 µM (inactive)

C[C@@H]1CN([C@H](C)CO)C(=O)c2cc(NC(=O)Nc3ccc(C(F)(F)F)cc3)ccc2O[C@@H](C)CCCCO[C@H]1CN(C)C(=O)c1ccccc1
AC50 (Paired box protein Pax-8): 12.1 µM (active)
AC50 [7]: 37.5 µM (active)
AC50 [8]: 33.2 µM (active)
AC50 [9]: 35.6 µM (active)
AC50 [10]: 50.7 µM (active)

CN(C)c1ccc(C(=O)C=Cc2ccc([N+](=O)[O-])cc2)cc1
IC50 [11]: 80 µM (inactive)

Cc1ccc(NC(=O)CNc2ccccc2N2CCCC2=O)cc1S(=O)(=O)N1CCCCC1
AC50 [12]: 48.3 µM (active)

Nc1c(Br)cc(Br)c2c1nc(O)c1ccccc12
AC50 (Caspase-6): 18.1 µM (active)

CC[C@H]1OC(=O)[C@H](C)[C@@H](O[C@H]2C[C@@](C)(OC)[C@@H](O)[C@H](C)O2)[C@H](C)[C@@H](O[C@@H]2O[C@H](C)C[C@H](N(C)C)[C@H]2O)[C@](C)(O)C[C@@H](C)C(=O)[C@H](C)[C@@H](O)[C@]1(C)O [ERYTHROMYCIN]
EC50 [13]: < 0.06 µM (active)
EC50 (Streptococcus): < 0.06 µM (active)
IC50 [11]: 47.1 µM (inactive)
